In data set [1] the target is T1, LAT-1 (Homo sapiens, UniProt Q01650). Put plainly: Boron accumulation in presence of LAT-1 inhibitors (unpublished). Format: cell-based. The conditions noted are these: unpublished earlier work of the applicant.
Target sequence in this assay (Q01650 whole entry, species assumed): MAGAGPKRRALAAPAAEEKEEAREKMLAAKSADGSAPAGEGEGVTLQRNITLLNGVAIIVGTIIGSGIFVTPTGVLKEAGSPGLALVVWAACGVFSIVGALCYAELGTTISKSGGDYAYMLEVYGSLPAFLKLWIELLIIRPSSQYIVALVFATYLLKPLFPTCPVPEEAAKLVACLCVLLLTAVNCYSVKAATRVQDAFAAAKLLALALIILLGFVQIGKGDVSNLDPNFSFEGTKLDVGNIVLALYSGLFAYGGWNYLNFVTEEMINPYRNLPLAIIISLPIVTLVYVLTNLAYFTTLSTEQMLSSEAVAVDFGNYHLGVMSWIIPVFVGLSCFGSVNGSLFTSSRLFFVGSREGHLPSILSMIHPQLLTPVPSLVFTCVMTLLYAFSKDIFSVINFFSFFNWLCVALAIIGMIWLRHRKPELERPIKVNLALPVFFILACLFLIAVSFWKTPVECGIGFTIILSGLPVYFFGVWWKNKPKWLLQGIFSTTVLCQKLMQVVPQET
Target sequence in this assay (P08195 102-630 partner, species assumed): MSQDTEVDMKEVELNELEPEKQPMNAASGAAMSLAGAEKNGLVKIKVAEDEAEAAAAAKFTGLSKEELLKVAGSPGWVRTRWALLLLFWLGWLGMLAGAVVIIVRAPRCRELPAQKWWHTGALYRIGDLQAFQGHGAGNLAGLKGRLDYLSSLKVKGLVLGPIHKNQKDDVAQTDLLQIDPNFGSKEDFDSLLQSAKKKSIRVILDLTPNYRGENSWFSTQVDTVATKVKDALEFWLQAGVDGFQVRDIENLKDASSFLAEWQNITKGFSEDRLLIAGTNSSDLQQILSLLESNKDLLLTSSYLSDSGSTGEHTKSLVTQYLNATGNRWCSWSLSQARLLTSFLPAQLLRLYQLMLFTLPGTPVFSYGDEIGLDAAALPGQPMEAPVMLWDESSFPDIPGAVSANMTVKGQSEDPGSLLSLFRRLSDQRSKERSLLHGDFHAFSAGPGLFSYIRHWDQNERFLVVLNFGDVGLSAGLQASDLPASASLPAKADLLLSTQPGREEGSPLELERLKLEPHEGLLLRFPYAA
Data set [2] is described as follows: Pharmacokinetics in non-tumor-bearing Balb/C mice (blood boron by ICP OES). It counts as in vivo. The conditions noted are these: for CL / Vss: i.v. tail vein, Balb/C male mice, blood boron. As to the method: To determine the pharmacokinetics of BTS versus BPA (BPA-fructose) in blood, the following experiments were performed using the following protocols and under the parameters set forth in Table II. Briefly, […] of each compound ([…] and BPA-fructose) was injected into the tail vein of Balb/C non-tumor bearing male mice (5 mice per group). Blood was drawn at the following time points: 2, 5, 16, 30, 60, 120 and 240 min into EDTA-coated tubes. Boron concentration was measured using ICP OES following the digestion in concentrated nitric acid for one (1) hr. The boron concentration was normalized to 1 mL of blood and plotted using GraphPad Prizm. The PK parameters (see 20(B)) were obtain using PK Solver version 2.0 using compartmental analysis. BPA-fructose was used as a reference substance.

The subject of data set [3] is FaDu cells. Nature of the data set: Boron uptake in FaDu cells in vitro (ICP-OES). Format: cell-based, human. The settings on record: for intracellular boron concentration: equimolar 2.5 mM compound in HBSS, 2 hr, 37° C., ICP-OES.
The nature of data set [4]: Cellular retention of boron after removal of boron source from the media. Format: cell-based.
For data set [5], the system named is FaDu, Detroit 562, MeWo, A549, HCC-1954 xenografts. Nature of the data set: Boron uptake across panel of established tumor xenografts. It counts as in vivo. The conditions noted are these: BTS or BTS(OMe) 800 mg/kg vs BPA 200 mg/kg, 2 hours post-injection, SCID CB-17 mice. The source says:
In a further experiment, to ascertain whether BTS and BTS(OMe) are taken up to a relatively higher degree across cancer multiple cell lines which results in a higher boron concentration, the following protocol was used. Briefly, a panel of five (5) human cancer cell lines derived from multiple indications that would be considered for treatment using BNCT were used. Specifically, the panel consisted of Head and Neck Carcinomas (FaDu and Detroit 562), melanoma (MeWo), non-small cancer lung carcinoma (A549), and breast carcinoma (HCC-1954).
Using standard methods, subcutaneously implanted established mouse xenografts were grown in SCID CB-17 mice. The treatment began when the tumors reached 150-200 mm^3 as follows: the BTS or BTS(OMe) arms received 800 mg/kg and the control BPA arm received 200 mg/kg. The animals were euthanized at two (2) hours post-injection. The tumors were harvested, weighed, and digested using the standard methods. The concentration of boron was measured by ICP OES and plotted as microgram per gram tissue. […] However, the absolute uptake varied between the cell lines with the overall lowest uptake observed in the Detroit 562 tumors.

The test system of data set [6] is subcutaneous FaDu tumors. Nature of the data set: Time-course biodistribution and tumor to blood ratio in mice bearing subcutaneous FaDu tumors. The settings on record: 400 mg/kg bolus i.v. Format: in vivo. As to the method: To determine the biodistribution of BTS and BTS(OMe) and the tumor to blood ration, the following experiments were performed using the following protocols. Briefly, all compounds tested, with the exception of BPA, were prepared as 100 mg/mL stocks. BPA was prepared as a fructose solution at 25 mg/ml. The concentrations were confirmed by ICP OES prior to the study. The blood and tissues (tumor, kidney, and pancreas) were harvested at the times indicated, weighed, and placed inside the Teflon containers and digested using a CEM microwave oven. The digested tissues were analyzed by ICP OES to determine the boron concentration.
All animal studies were carried out following the “Guide for the care and use the laboratory animals,” Eighth Edition and Animal Welfare Act (USDA). Briefly, human hypopharyngeal squamous cell carcinoma FaDu cells were maintained in DMEM, supplemented with L-glutamine and 10% FBS. Subcutaneous (s.c.) tumors were generated by injection of 2.5×10^6 cancer cells mixed at a 1:1 dilution with Matrigel (Corning Life Sciences) in the right flank of female CB17 SCID mice. Tumor sizes were determined by caliper measurements, and the tumor volume was calculated as width^2×Length/2, wherein width is the smallest dimension and length is the largest dimension. Tumors were allowed to grow untreated until they reached an approximate volume of 300 mm^3. At that point, animals were randomized and allocated to each treatment group based on tumor volume at the time of treatment initiation to ensure similar mean tumor size and variation in each group.
Each group received a single dose of BPA at […] or a test article at either 400 mg/kg or […] via intravenous tail vein injection. […] Two (2) hrs. post dose, blood was collected from each mouse from the submandibular vein into K2 EDTA coated tubes. Tumor and organs were collected for boron analysis.
In order to determine the biodistribution of BTS and BTS(OMe) in FaDu-tumor bearing mice and determine the most appropriate time to harvest the tumor and organs of interest during the subsequent dose-escalation studies, 400 mg/kg doses of both molecules were administered as a bolus i.v. injection. BPA-fructose was administered at a dose of […] due to its solubility constraints and the requirements for the maximum i.v. volume allowed. The boron compound accumulation in blood/organs was determined by ICP OES and expressed as μg boron per gram of tissue.

The subject of data set [7] is subcutaneous FaDu. Nature of the data set: Dose titration, biodistribution and boron uptake using subcutaneous FaDu xenografts. The conditions noted are these: 2 hr post injection. Format: in vivo, mice. The protocol:
To determine the biodistribution and boron uptake of BTS and BTS(OMe) in vivo, the following experiments were performed using the following protocols. Briefly, to evaluate the effect of increased dose level using bolus i.v. injection on the accumulation of boron in the tumor, SCID mice carrying subcutaneous FaDu were dosed with BTS and BTS(OMe) at the levels ranging from 400 to 1000 mg/kg.
The tumor and selected organs were harvested at two (2) hr. post injection and processed for ICP OES.

Data set [8] can be described thus: Solubility in water. Format: physicochemical. As to the method:
To determine the solubility and impurity profiles of BTS and BTS(OMe) in solution, the following experiments were performed using the following protocols. Briefly, BTS test article preparation(s) were prepared by dissolving in water and adjusting pH to 7-7.5 by NaOH.
BTS(OMe) test article preparation(s) were prepared by dissolving in water and gradually raising pH by adding NaOH until all the crystals are solubilized. The pH at that point is approximately 9.5-10. Fructose is then added at the ratio of 1.1 mol/mol BTS(OMe). The pH is adjusted to 7-7.5 using concentrated HCl.
Both solutions were adjusted to 100 mg/mL and 0.2 μm filtered. The actual concentrations are confirmed by ICP OES.

Data set [9] relates to CT26 cells. Nature of the data set: Boron uptake in CT26 cells in vitro (ICP-OES). It counts as cell-based, mouse. The conditions noted are these: CT26 cell line, single experiment. An excerpt:
As a result, it accumulates boron compounds at significant levels. Additionally, FaDu also grows well as an established xenograft model in SCID mice. This disclosure endeavored to determine whether a mouse-derived cancer cell line, CT-26, is suitable for BNCT experiments. By way of background, CT26 is a syngeneic model, it can be implanted and established in wild-type BalbC mice and provides a convenient and low-cost model.
Briefly, CT26 cells were harvested and washed with PBS two (2) times, and the count was adjusted 2 million/ml in HBSS media Boron compounds were then added to cells at the final concentration of 2.5 mM in HBSS and the cells were incubated at 37° C. in a humidified 5% CO2 atmosphere for 2.0 hrs. with shaking. Following a two (2) hr. incubation, cells were harvested and washed two times with ice cold PBS. Cells were suspended in 1 ml ice cold PBS and a portion (50 NI) was lysed in RIPA buffer and protein content was determined by BCA assay.
The remaining portion (950 NI) was subjected to nitric acid lysis (66.7% acid at 80° C.) and boron measurements were carried out using ICP-OES.
Low expression of LAT-1 in CT26 estimated by Western blot is consistent with the overall reduced boron uptake. Each bar represents three (3) independent experiments performed on different days (FaDu) or a single experiment (CT-26) Error bars represent 1 standard deviation. […]

The test system of data set [10] is FaDu, A375, SCC-25, A253, and Detroit 562. Put plainly: BTS uptake across head and neck cancer and melanoma cell lines. It counts as cell-based, human. The settings on record: 2 hours treatment, each of the five cell lines. As to the method: To evaluate the uptake of BTS in multiple head and neck cancer cell lines as well as melanoma cell lines the following experiments were performed using the following protocols.
Briefly, five (5) human-derived cell lines (FaDu, A375, SCC-25, A253, and Detroit 562), all representing cancer indications relevant to BNCT treatment, were cultured, and treated with either BPA-fructose (the standard of care) or with BTS for two (2) hours. The cells were then washed to remove the compounds, harvested, and treated as per the protocol described above. Boron uptake was reported as μg boron per mg of cellular protein as determined by ICP OES and by the BCA assay, respectively.

In data set [11] the test system is F98 and C6 rat glioma cell lines. Put plainly: BTS uptake using rat glioma cell lines. It counts as cell-based. The conditions noted are these: 2 hr, F98 and C6 cells. An excerpt: Rat glioma cell lines were extensively used as orthotopic cancer models to conduct reactor based BNCT studies using either innovative boron carriers or a myriad of ways to enhance the uptake of BPA, including convection enhanced delivery of boronoporphyrins (Yang, et al., doi:10.1016/j.apradiso.2014.01.002), or pre-treatment of tumors with L-DOPA (Barth, et al., J Neurooncol. 2009; 94:299-312).
In this experiment, used cultured cell lines to confirm that BTS can be used for efficient boron delivery into both F98 and C6 rat glioma cell lines. […] This compound is expected to cross BBB and will be relevant for BNCT of brain tumors.

The target in data set [12] is T1, LAT-1. Nature of the data set: Uptake competition assay with phenylalanine in FaDu cells. Further details: endogenous in cells; host or cells: FaDu. The settings on record: 0.5 mM compound, Phe 0.01 to 20 mM, compared to BTS(OMe) or BPA. Format: cell-based. The protocol: To determine the ability for BTS and BTS(OMe) to mediate LAT-1, the following experiments were performed using the following protocols. Briefly, FaDu cells (2 million) were incubated in HBSS medium for two (2) hrs. at 37° C. with 0.5 mM of either (i) BTS, (ii) BTS(OMe), or (iii) BPA-fructose in the absence (19A) or presence of increasing concentrations of LAT-1 specific inhibitor JPH203-dichloride, (19A) or phenylalanine, a competitor (19B). Following incubation, the cells were harvested and washed with cold PBS. The amount of each compound that was taken up by the cells was determined by ICP OES. The IC50 determination was made by a three (3) parameter inhibitor non-linear regression fit using Prism (Graph Pad) software.
In the competition assay, increased concentration of Phe in the range of 0.01 to 20 mM was used. […] (FIG. 19).
Target sequence in this assay (Q01650 whole entry): as the sequence (Q01650 whole entry, species assumed) above
Target sequence in this assay (P08195 102-630 partner): as the sequence (P08195 102-630 partner, species assumed) above

Each structure is given as a SMILES string.

For the molecule `NC1(C(=O)O)CC2CCC1C2` (stereo not shown) [BCH, 2-aminobicyclo-(2,2,1)-heptane-2-carboxylic acid], the “effect of LAT-1 inhibitor on boron accumulation of borylated tyrosine analogs” value in [1] was “diminished boron accumulations in a concentration-dependent fashion”.
As to `N[C@@H](Cc1ccc(B(O)O)cc1)C(=O)O` [BPA, 4-Borono-L-phenylalanine, reference compound], in data set [2], the CL was 0.00011 mg/(μg/mL)/min and the Vss was determined as 0.0289 mg/µg/mL. The molecule further came in with an intracellular boron concentration in data set [3] of 1097 ± 59 µg/g. In data set [4], the “intracellular boron once boron source is removed and replaced with fresh medium (cellular retention)” value is “decreases sharply”.
On to `COc1ccc(C[C@H](N)C(=O)O)cc1B(O)O` [BTS(OMe)], for which the intracellular boron concentration in data set [3] worked out at 1005 ± 113 µg/g. In addition, the “amount of boron in tumors across xenograft panel” value in [5] is listed as “highest”. In data set [6] (BPA-fructose 200), the “biodistribution compared to BPA” value is listed as “remarkably similar in its biodistribution to BPA”. The “accumulation in kidney or pancreas” value in data set [7] is given as “does not accumulate”. Also, the solubility in water entry in [8] is listed as “very soluble in water”.
For the molecule `N[C@@H](Cc1ccc(O)c(B(O)O)c1)C(=O)O` [BTS], in data set [2], the CL is 0.000304 mg/(μg/mL)/min and the Vss was determined as 0.0252 mg/µg/mL. The pharmacokinetic profile result in data set [2] (saline formulation, i.v.) is listed as “bi-phasic pharmacokinetics”. Moreover, in [9], the “amount of compound internalized in CT26 less than in FaDu” value is reported as “more pronounced”. In data set [3], this molecule had an intracellular boron concentration of 1700 ± 133 µg/g. The “intracellular boron concentration higher compared to BPA-fructose” value in [3] (equimolar concentrations) is 60%. Further, in [10], the “boron uptake compared to BPA-fructose” value is “superior uptake”. The “boron concentration achieved, BTS compared to BPA-fructose” value in data set [11] was above 2 fold. Besides, the “IC50 of phenylalanine competition of compound uptake” value in data set [12] is “higher IC50”. Moreover, the “amount of boron in tumors across xenograft panel” value in data set [5] is “highest”. Moreover, in data set [6], the “uptake in murine pancreas” value is given as “exceedingly high uptake”. Moreover, the “increase of tumor to blood ratio between 30 and 60 min” value in data set [6] (FaDu xenografts) is listed as “more than two-fold”. In [6] (from initial time point of 5 min), the “decline of boron in the kidney” value is recorded as “considerably slower”. Further, in data set [8], the solubility in water result was “very soluble in water”.
Turning to `Nc1cc(COc2c(Cl)cc(C[C@H](N)C(=O)O)cc2Cl)c2oc(-c3ccccc3)nc2c1` [JPH203], the “effect of LAT-1 inhibitor on boron accumulation of borylated tyrosine analogs” value in [1] is reported as “diminished boron accumulations in a concentration-dependent fashion”.

For the origin of these results see US12319707B2, “Dosage unit form(s) comprising BTS and BTS(OMe) for use in boron neutron capture therapy and methods thereof” (TAE Life Sciences, priority 2021, dated 2025).
